“Also recorded” adds a separate entry of the source.
Columns and labels:
[1] = Interconversion of huUgn A and B isomers in vitro (storage at −80° C.; pH 4, 50° C.); assay type: physicochemical; conditions: LC-MS at periodic intervals
Description: FIG. 2C is a graph showing the amount of “UgnA like” activity as a function of time in cells treated with either huUgnA and huUgnB. The A and B isomers (filled and open circles, respectively) interconvert slowly in vitro. Peptides were incubated at 50° C. in 1 mM citrate buffer (pH 4) for either 0, 24, or 48 hr. Samples were then diluted into bioassay medium, the pH was adjusted to 7.0, and activity was measured in the T84 cell bioassay. A huUgnA standard curve was generated in the same assay, and cyclic GMP responses were converted to recoveries of “UgnA-like” peptide by interpolation on this standard curve.
HPLC analysis and mass spectroscopy of Ugn isomers. The integrity and purity of huUgnA and B isomer preparations were confirmed by liquid chromatography/mass spectroscopy (LC-MS) analysis. The two Ugn isomers have different retention times on a reverse phase HPLC column (FIG. 1, dashed trace; huUgnA elutes ˜0.35 minutes before huUgnB). Separations were performed on a Hypersil Gold AQ 2.1×50 mm column from Thermo Fisher Scientific Inc (Waltham, Mass.) equilibrated in 98% buffer A (0.1% formic acid), 2% buffer B (85:10:5 Acetonitrile/Isopropyl Alcohol/5 mM NH4OAc pH 5.8) with a flow rate of 0.4 ml/min on an Acquity HPLC system. […]

[2] = test system: anesthetized rats; assay: Renal sodium excretion during and after iv peptide infusion in anesthetized rats; assay type: in vivo, rat
Description: Rats were not fasted prior to clearance experiments and ranged in weight from 250-340 g at the time of study. Anesthesia was induced with an intraperitoneal injection of pentobarbital sodium (55 mg/kg BW) and maintained at a surgical plane by intermittent intravenous supplementation. Core temperature was maintained at 37° C. by a servo-controlled, heated operating table. Animals breathed spontaneously through a PE240 cannula inserted into the trachea. A jugular vein was catheterized with PE50 cannula tubing for intravenous infusion of isotonic saline containing FITC-labeled inulin (0.4% W/V, Sigma, St Louis Mo.) and two PE10 cannulae, one for supplemental anesthetic and the other for peptide infusions (described below in the experimental protocol section). The ureters were exposed through a midline ventral incision and cannulated with PE10 tubing about one cm from each kidney. Urine was collected over 20 min periods and the volume estimated by weight. A femoral artery was cannulated with PE50 tubing for continuous measurement of arterial blood pressure and intermittent blood samples (50 μl), taken at the mid point of each urine collection.
All rats received a continuous intravenous infusion (10 μl/min/100 g BW) of isotonic saline containing FITC-labeled inulin for measurement of inulin clearance. Uncongugated FITC label and small inulin polymers were removed from the inulin solution by overnight dialysis against isotonic saline (SpectraPor 6 dialysis membrane, 1 kDa cutoff-limit, Spectrum Laboratories, Rancho Domingo, Calif.). Undissolved particulates were removed from the solution by filtration through a […] filter before each experiment (Steriflip, Millipore Inc. Billerica, Mass.). At least one hr was allowed for equilibration before the start of urine collections, at which point plasma inulin concentration had stabilized at an average value of 30±3 μg/ml.
Arterial blood pressure was measured with a pressure transducer connected to a cardiovascular analyzer (Model 50110, Stoelting Instruments Wood Dale, Ill.). Left renal blood flow was measured in some rats with a flow probe positioned on the left renal artery and connected to a blood flow monitor (model 1 PRB probe and model T420 monitor, Transonic Systems Inc. Ithaca N.Y.). Arterial pressure, heart rate, and renal blood flow were digitized with an A/D converter (Keithley instruments, Cleveland, Ohio Model KUSB 3100) for display and storage on a Windows-based personal computer using open layers data acquisition software (Dtx_Ez, Data Translation Inc, Marlboro, Mass.). Sodium and potassium concentrations in plasma and urine were measured by flame photometry (Model 943, Instrumentation Laboratory Co., Lexington Mass.). Glomerular filtration rate (GFR) was measured as the renal clearance rate of FITC-labeled inulin
After post-surgical equilibration (−60 min) and three 20 min control clearance periods, huUgnA or B was infused into the jugular vein at 10 μl/min over a 60 min period, followed by a return to isotonic saline for the remainder of the experiment. The infused doses of huUgnA were 12, 25, 50, 100, or 200 nmol/kg BW in a total of 38 rats; huUgnB doses were 9, 18, 35, 70, and 140 nmol/kg BW in 35 rats. A UgnA mimetic, E. coli STh (ST-core), was infused into a third group of 32 rats at doses of 17, 32, 66, 133, and 266 nmol/kg. Renal excretory responses to these infusions were slow to develop and long lasting, so clearance periods were continued for 2-3 hr after the termination of the peptide infusion. This protracted time course limited protocols to one dose of one peptide in each rat. A control group of 10 rats received isotonic saline at 10 μl/min in place of the peptide infusion, but was otherwise treated in the same way as the experimental groups.
The effects of combined infusions of huUgnA and B were investigated in two groups of rats that received 35 nmol/kg of huUgnB together with either 25 nmol/kg (n=5) or 100 nmol/kg of huUgnA (n=5). […]

[3] = molecular target: cultured GC-C-expressing cells (Homo sapiens, UniProt P25092); conditions: cited from earlier work
[4] = huUgnB 35 nmol, Post-infuse, *** p<0.005 vs time control

cultured GC-C-expressing cells, sequence (P25092 24-1073): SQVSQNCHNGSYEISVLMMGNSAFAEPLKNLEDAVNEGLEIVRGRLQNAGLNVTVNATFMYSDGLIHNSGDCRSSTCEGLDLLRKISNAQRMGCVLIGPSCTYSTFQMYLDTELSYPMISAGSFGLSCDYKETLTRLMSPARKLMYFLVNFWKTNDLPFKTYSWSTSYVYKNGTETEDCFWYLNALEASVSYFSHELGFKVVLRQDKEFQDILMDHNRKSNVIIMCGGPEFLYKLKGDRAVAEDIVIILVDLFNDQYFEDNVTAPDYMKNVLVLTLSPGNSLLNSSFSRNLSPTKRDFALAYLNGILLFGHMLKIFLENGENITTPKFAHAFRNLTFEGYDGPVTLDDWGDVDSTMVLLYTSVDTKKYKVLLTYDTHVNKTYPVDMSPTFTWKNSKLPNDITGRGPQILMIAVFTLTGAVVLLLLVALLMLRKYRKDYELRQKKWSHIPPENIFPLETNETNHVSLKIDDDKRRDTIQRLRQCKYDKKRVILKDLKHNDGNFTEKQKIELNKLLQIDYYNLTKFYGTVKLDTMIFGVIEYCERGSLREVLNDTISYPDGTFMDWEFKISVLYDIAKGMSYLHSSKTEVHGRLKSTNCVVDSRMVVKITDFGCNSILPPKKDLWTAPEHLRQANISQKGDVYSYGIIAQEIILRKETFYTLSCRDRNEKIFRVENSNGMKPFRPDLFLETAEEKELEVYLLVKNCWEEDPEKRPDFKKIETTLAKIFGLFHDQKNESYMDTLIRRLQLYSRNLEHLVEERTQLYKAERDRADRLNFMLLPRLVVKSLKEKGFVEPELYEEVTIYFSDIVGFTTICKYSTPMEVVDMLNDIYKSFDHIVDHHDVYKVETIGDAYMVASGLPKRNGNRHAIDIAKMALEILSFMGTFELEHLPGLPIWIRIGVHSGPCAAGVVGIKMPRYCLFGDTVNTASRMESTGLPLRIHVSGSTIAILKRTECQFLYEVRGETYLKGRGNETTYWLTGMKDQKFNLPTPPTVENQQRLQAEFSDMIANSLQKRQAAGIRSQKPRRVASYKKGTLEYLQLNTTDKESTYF

With `CC(C)C[C@H](NC(=O)[C@@H]1CSSC[C@@H]2NC(=O)[C@H](CC(C)C)NC(=O)[C@H](CCC(=O)O)NC(=O)[C@@H](NC(=O)[C@H](CC(=O)O)NC(=O)[C@H](CC(=O)O)NC(=O)[C@@H](N)CC(N)=O)CSSC[C@H](NC(=O)[C@H](C)NC(=O)[C@H](C(C)C)NC(=O)[C@H](CC(N)=O)NC(=O)[C@H](C(C)C)NC2=O)C(=O)N[C@@H]([C@@H](C)O)C(=O)NCC(=O)N1)C(=O)O` (single isomer, unassigned) [huUgnB, Asn Asp Asp Cys Glu Leu Cys Val Asn Val Ala Cys Thr Gly Cys Leu] the “conversion from one isoform to the other during storage” value [1] was “did not occur”, the “net cumulative sodium excretion, co-infusion” value ([2]; huUgnA 25 nmol/kg combined with huUgnB 35 nmol/kg) was “did not produce an additive response; also recorded: not different from the natriuresis evoked by A25 or B35 alone” and the “net cumulative sodium excretion, co-infusion” value ([2]; huUgnA 100 nmol/kg combined with huUgnB 35 nmol/kg) was “almost completely suppressed; also recorded: significantly less than the response to B35 alone”. The “FENa (fractional sodium excretion)” value ([2]; huUgnB 9 nmol, Infuse) was 0.09 ± 0.02 % of filtered, the “UNaV (sodium excretion)” value ([2]; huUgnB 9 nmol, Infusion) was 134.6 ± 53 nEq/min/g KW and the “FENa (fractional sodium excretion)” value ([2]; huUgnB 9 nmol, Post-infuse) was 0.21 ± 0.04 % of filtered. For the same compound, the “UNaV (sodium excretion)” value ([2]; huUgnB 9 nmol, Post-infuse) was 195 ± 37 nEq/min/g KW, the “FENa (fractional sodium excretion)” value ([2]; huUgnB 9 nmol, Pre-infuse) was 0.05 ± 0.01 % of filtered and the “UNaV (sodium excretion)” value ([2]; huUgnB 9 nmol, Pre-infuse) was 67 ± 17 nEq/min/g KW. For the same compound, the “FENa (fractional sodium excretion)” value ([2]; huUgnB 18 nmol, Infuse) was 0.12 ± 0.03 % of filtered, the “UNaV (sodium excretion)” value ([2]; huUgnB 18 nmol, Infusion) was 155.2 ± 34 nEq/min/g KW and the “FENa (fractional sodium excretion)” value ([2]; huUgnB 18 nmol, Post-infuse) was 0.42 ± 0.08 % of filtered. For the same compound, the “UNaV (sodium excretion)” value ([2]; huUgnB 18 nmol, Post-infuse, *** p<0.005 vs time control) was 538 ± 81*** nEq/min/g KW, the “FENa (fractional sodium excretion)” value ([2]; huUgnB 18 nmol, Pre-infuse) was 0.07 ± 0.01 % of filtered and the “UNaV (sodium excretion)” value ([2]; huUgnB 18 nmol, Pre-infuse) was 83 ± 19 nEq/min/g KW. The “FENa (fractional sodium excretion)” value ([2]; huUgnB 35 nmol, Infuse) was 0.27 ± 0.07 % of filtered, the “UNaV (sodium excretion)” value ([2]; huUgnB 35 nmol, Infusion) was 229.4 ± 47 nEq/min/g KW and the “FENa (fractional sodium excretion)” value [2, 4] was 0.62 ± 0.10*** % of filtered. The “UNaV (sodium excretion)” value [2, 4] was 729 ± 73*** nEq/min/g KW, the “FENa (fractional sodium excretion)” value ([2]; huUgnB 35 nmol, Pre-infuse) was 0.12 ± 0.02 % of filtered and the “UNaV (sodium excretion)” value ([2]; huUgnB 35 nmol, Pre-infuse) was 132 ± 40 nEq/min/g KW. For the same compound, the “FENa (fractional sodium excretion)” value ([2]; huUgnB 70 nmol, Infuse) was 0.24 ± 0.14 % of filtered, the “UNaV (sodium excretion)” value ([2]; huUgnB 70 nmol, Infusion) was 285.7 ± 165 nEq/min/g KW and the “FENa (fractional sodium excretion)” value ([2]; huUgnB 70 nmol, Post-infuse, * p<0.05 vs time control) was 0.52 ± 0.10* % of filtered. The “UNaV (sodium excretion)” value ([2]; huUgnB 70 nmol, Post-infuse, *** p<0.005 vs time control) was 696 ± 151*** nEq/min/g KW, the “FENa (fractional sodium excretion)” value ([2]; huUgnB 70 nmol, Pre-infuse) was 0.08 ± 0.03 % of filtered and the “UNaV (sodium excretion)” value ([2]; huUgnB 70 nmol, Pre-infuse) was 87 ± 31 nEq/min/g KW. The “FENa (fractional sodium excretion)” value ([2]; huUgnB 140 nmol, Infuse) was 0.18 ± 0.05 % of filtered, the “UNaV (sodium excretion)” value ([2]; huUgnB 140 nmol, Infusion) was 212.1 ± 67 nEq/min/g KW and the “FENa (fractional sodium excretion)” value ([2]; huUgnB 140 nmol, Post-infuse, ** p<0.01 vs time control) was 0.65 ± 0.11** % of filtered. The “UNaV (sodium excretion)” value ([2]; huUgnB 140 nmol, Post-infuse, *** p<0.005 vs time control) was 906 ± 170*** nEq/min/g KW, the “FENa (fractional sodium excretion)” value ([2]; huUgnB 140 nmol, Pre-infuse) was 0.08 ± 0.01 % of filtered and the “UNaV (sodium excretion)” value ([2]; huUgnB 140 nmol, Pre-infuse) was 103 ± 8 nEq/min/g KW. The “ED50, net cumulative sodium excretion over three hours” value ([2]; infused over first hour, log agonist response curve, FIG. 6A) was 19 nmol/kg, the “ED50, net cumulative sodium excretion” value ([2]; log(agonist) vs response fit, p<0.02) was “about 20 nmol UgnB/kg BW” and the “UNaV time course, ANOVA vs control” value ([2]; post infusion periods after 18, 35, 70, and 140 nmol/kg (p<0.001 for all)) was “significant natriuretic response”. The “doses producing significant natriuresis (net excretory values)” value ([2]; rat, in vivo) was “above 9 nmol”, the “shape of natriuretic dose-response relationship” value ([2]; rat, in vivo) was “conventional” and the “potency, fold less potent than the A isomer” value [3] was “more than 100 fold”.
